The subject of the assay is M17_3TAU(P301L) cells. In words: Neuroblastoma tauopathy model: inhibition of TAU-induced cytotoxicity (LDH) after retinoic acid differentiation. The format is cell-based. Particulars: Homo sapiens, 168 h, inhibition of TAU-induced toxicity, 7 days retinoic acid, LDH readout. An excerpt: A TAU expression plasmid was constructed by sub-cloning the cDNA encoding for human TAU-P301L protein, wherein proline at position 301 is substituted by a leucine residue, into mammalian expression vector pcDNA3.1 resulting in the plasmid pcDNA3.1-TAUP301L. Plasmids pcDNA3.1 and pcDNA3.1-TAU P301L were transfected into human neuroblastoma cells (BE-M17; ATCC No. CRL2267™) using lipofectamine reagent and subsequently, independent clonal cell lines with the plasmids stably integrated into the genome were selected by antibiotic resistance selection (Geneticin (G418)), resulting in cell lines M17.pcDNA3 and M17_3TAUP301L. Expression of the TAUP301L gene in the M17_3TAUP301L cells was confirmed by Western blot analysis.
Differentiation of the cells with RA leads to phosphorylation and subsequent aggregation of TAU, inducing a tauopathy in these cells. Cytotoxicity of cells was measured by quantification of lactate dehydrogenase (LDH) levels. In dead cells LDH is leaked out of the cells into the medium due to a loss of plasma-membrane integrity.
Briefly, 3 days preceeding the experiment pre-cultures of M17.pcDNA3 and M17_3TAU(P301L) cells were prepared, starting from a stock culture, at a density of 50.000-100.000 cells/cm2 in detection medium (Optimem Reduced Serum without phenol red (Gibco, Cat. 31985-047) supplemented with 1% fetal calf serum (FCS), 1 mM sodium pyruvate, 1× non-essential amino acids (NEAR), 500 μg/ml G418 and 0.5× antibiotic/antimycotic (ABAM)). At the day of the experiment these precultures were diluted to ˜0, 1.106 cells/ml in detection medium without FCS and 60 μL of this suspension is dispensed per well into a 96-well microtiter plate. After 3 hours of incubation at 37° C./5% CO2 an equal volume of detection medium containing 2.5 μM RA was added and subsequently incubated for 7 days at 37° C./5% CO2. After 7 days, LDH activity was determined using the Promega Cytotox 96 Non-Radioactive cytotoxicity assay (Cat. G1780), according the manufacturer's instructions. Cytotoxicity is measured as the ratio of LDH increase in the supernatant divided by the LDH increase in the total cell suspension (sum of the LDH measured in cells and supernatant).
The M17_3TAU(P301L) cell line makes it possible to assess the ability of novel compounds to inhibit TAU-induced cytotoxicity. […] Compounds were tested for their ability to hamper TAU-induced toxicity at different concentrations, ranging from low non-effective concentrations to high potent concentrations. Afterwards, the dose-dependent inhibition curve was used to calculate their EC50 (Table III).
`Fc1ccc(CCN2CCN(c3nc(N4CCC(F)(F)C4)ns3)CC2)cc1F` [Example 11, 1-[2-(3,4-Difluoro-phenyl)-ethyl]-4-[3-(3,3-difluoro-pyrrolidin-1-yl)-[1,2,4]thiadiazol-5-yl]-piperazine] returned an EC50 of 11.4 nM. To `Fc1ccc(CCN2CCN(c3nc(C4CCOCC4)ns3)CC2)cc1` [Example 27, 1-[2-(4-Fluoro-phenyl)-ethyl]-4-[3-(tetrahydro-pyran-4-yl)-[1,2,4]thiadiazol-5-yl]-piperazine] belongs 309 nM. To `Fc1ccc(CCN2CCN(c3nc(N4CCCC4)ns3)CC2)cc1F` [Example 14, 1-[2-(3,4-Difluoro-phenyl)-ethyl]-4-(3-pyrrolidin-1-yl-[1,2,4]thiadiazol-5-yl)-piperazine] belongs 176 nM; to `CCCCc1nsc(N2CCN(CCc3ccc(OC)cc3)CC2)n1` [Example 23, 1-(3-Butyl-[1,2,4]thiadiazol-5-yl)-4-[2-(4-methoxy-phenyl)-ethyl]-piperazine], 0.5 nM. Take `Clc1ccc(CCN2CCN(c3nc(NC4CCOCC4)ns3)CC2)cc1` [Example 8, (5-{4-[2-(4-Chloro-phenyl)-ethyl]-piperazin-1-yl}-[1,2,4]thiadiazol-3-yl)-(tetrahydro-pyran-4-yl)-amine]: the concentration for a half-maximal effect (EC50) was 52.2 nM. Compared with the last compound, the EC50 is about 100-fold higher. To `COc1ccc(CCN2CCN(c3nc(C4CCOCC4)ns3)CC2)cc1` [Example 28, 1-[2-(4-Methoxy-phenyl)-ethyl]-4-[3-(tetrahydro-pyran-4-yl)[1,2,4]thiadiazol-5-yl]-piperazine] belongs 33.3 nM.

Consider `Fc1ccc(CCN2CCN(c3nc(C4CCOCC4)ns3)CC2)cc1F` [Example 31, 1-[2-(3,4-Difluoro-phenyl)-ethyl]-4-[3-(tetrahydro-pyran-4-yl)-[1,2,4]thiadiazol-5-yl]-piperazine], for which the EC50 turned out to be 308 nM. Under `COc1ccc(CCN2CCN(c3nc(N4CCC(F)(F)CC4)ns3)CC2)cc1` [Example 1, 1-[3-(4,4-Difluoro-piperidin-1-yl)-[1,2,4]thiadiazol-5-yl]-4-[2-(4-methoxy-phenyl)-ethyl]-piperazine] stands 0.6 nM; under `Fc1ccc(CCN2CCN(c3nc(NCC4CC4)ns3)CC2)cc1F` [Example 15, Cyclopropylmethyl-(5-{4-[2-(3,4-difluoro-phenyl)-ethyl]-piperazin-1-yl}-[1,2,4]thiadiazol-3-yl)-amine], 38.4 nM; under `COc1cccc(CCN2CCN(c3nc(C4CC4)ns3)CC2)c1` [Example 26, 1-(3-Cyclopropyl-[1,2,4]thiadiazol-5-yl)-4-[2-(3-methoxy-phenyl)-ethyl]-piperazine], 410 nM.

`Fc1ccc(CCN2CCN(c3nc(N4CCC(F)(F)CC4)ns3)CC2)cc1F` [Example 10, 1-[2-(3,4-Difluoro-phenyl)-ethyl]-4-[3-(4,4-difluoro-piperidin-1-yl)-[1,2,4]thiadiazol-5-yl]-piperazine] yielded a 50% effective concentration (EC50) of 12.1 nM. To `FC1CCN(c2nsc(N3CCN(CCc4ccc(Cl)cc4)CC3)n2)CC1` [Example 4, 1-[2-(4-Chloro-phenyl)-ethyl]-4-[3-(4-fluoro-piperidin-1-yl)-[1,2,4]thiadiazol-5-yl]-piperazine] belongs 84.6 nM. To `COc1cccc(CCN2CCN(c3nc(C4CCCCC4)ns3)CC2)c1` [Example 22, 1-(3-Cyclohexyl-[1,2,4]thiadiazol-5-yl)-4-[2-(3-methoxy-phenyl)-ethyl]-piperazine] belongs 3 nM; to `Fc1ccc(CCN2CCN(c3nc(N4CCC(F)CC4)ns3)CC2)cc1F` [Example 12, 1-[2-(3,4-Difluoro-phenyl)-ethyl]-4-[3-(4-fluoro-piperidin-1-yl)-[1,2,4]thiadiazol-5-yl]-piperazine], 33.3 nM. Under `Fc1ccc(CCN2CCN(c3nc(N4CCC(C(F)(F)F)CC4)ns3)CC2)cc1F` [Example 13, 1-[2-(3,4-Difluoro-phenyl)-ethyl]-4-[3-(4-trifluoromethyl-piperidin-1-yl)-[1,2,4]thiadiazol-5-yl]-piperazine] stands 15.3 nM. Consider `Fc1ccc(CCN2CCN(c3nc(NC4CCC(C(F)(F)F)CC4)ns3)CC2)cc1F` (stereo not drawn) [Example 19, (5-{4-[2-(3,4-Difluoro-phenyl)-ethyl]-piperazin-1-yl}[1,2,4]thiadiazol-3-yl)-(4-trifluoromethyl-cyclohexyl)-amine], for which the midpoint of the response, the EC50, lay at 340 nM. To `Clc1ccc(CCN2CCN(c3nc(NC4CCCCC4)ns3)CC2)cc1` [Example 9, (5-{4-[2-(4-Chloro-phenyl)-ethyl]-piperazin-1-yl}-[1,2,4]thiadiazol-3-yl)-cyclohexyl-amine] belongs 9.4 nM. Under `FC1(F)CCN(c2nsc(N3CCN(CCc4ccc(Cl)cc4)CC3)n2)C1` [Example 3, 1-[2-(4-Chloro-phenyl)-ethyl]-4-[3-(3,3-difluoro-pyrrolidin-1-yl)-[1,2,4]thiadiazol-5-yl]-piperazine] stands 8.8 nM; under `Fc1ccc(CCN2CCN(c3nc(NC4CCCCC4)ns3)CC2)cc1F` [Example 17, Cyclohexyl-(5-{4-[2-(3,4-difluoro-phenyl)-ethyl]-piperazin-1-yl}-[1,2,4]thiadiazol-3-yl)-amine], 3.8 nM. Compound `CCCCN(CC)c1nsc(N2CCN(CCc3ccc(F)c(F)c3)CC2)n1` [Example 20, Butyl-(5-{4-[2-(3,4-difluoro-phenyl)-ethyl]-piperazin-1-yl}-[1,2,4]thiadiazol-3-yl)-ethyl-amine] showed a half-maximal effective concentration (EC50) of 709 nM. Under `Clc1ccc(CCN2CCN(c3nc(N4CCCCC4)ns3)CC2)cc1` [Example 6, 1-[2-(4-Chloro-phenyl)-ethyl]-4-(3-piperidin-1-yl-[1,2,4]thiadiazol-5-yl)-piperazine] stands 64.1 nM. Under `COc1cc(CCN2CCN(c3nc(C4CCOCC4)ns3)CC2)ccn1` [Example 29, 1-[2-(2-Methoxy-pyridin-4-yl)-ethyl]-4-[3-(tetrahydro-pyran-4-yl)-[1,2,4]thiadiazol-5-yl]-piperazine] stands 203 nM; under `COc1ccc(CCN2CCN(c3nc(C4CCCCC4)ns3)CC2)cc1` [Example 21, 1-(3-Cyclohexyl-[1,2,4]thiadiazol-5-yl)-4-[2-(4-methoxy-phenyl)-ethyl]-piperazine], 2.2 nM. With `Fc1ccc(CCN2CCN(c3nc(NC4CCOCC4)ns3)CC2)cc1F` [Example 16, (5-{4-[2-(3,4-Difluoro-phenyl)-ethyl]-piperazin-1-yl}-[1,2,4]thiadiazol-3-yl)-(tetrahydro-pyran-4-yl)-amine], the midpoint of the response, the EC50, lay at 34.5 nM. This EC50 lies about 16-fold higher than the previous one.

Consider `Cc1ccccc1CN1CCN(c2nc(C3CCOCC3)ns2)CC1` [Example 30, 1-(2-Methyl-benzyl)-4-[3-(tetrahydro-pyran-4-yl)-[1,2,4]thiadiazol-5-yl]-piperazine], for which the EC50 was 414 nM.

Compound `FC(F)(F)C1CCN(c2nsc(N3CCN(CCc4ccc(Cl)cc4)CC3)n2)CC1` [Example 5, 1-[2-(4-Chloro-phenyl)-ethyl]-4-[3-(4-trifluoromethyl-piperidin-1-yl)-[1,2,4]thiadiazol-5-yl]-piperazine] registered an EC50 of 47 nM. To `Clc1ccc(CCN2CCN(c3nc(NCC4CC4)ns3)CC2)cc1` [Example 7, (5-{4-[2-(4-Chloro-phenyl)-ethyl]-piperazin-1-yl}-[1,2,4]thiadiazol-3-yl)-cyclopropylmethyl-amine] belongs 17.2 nM; to `COc1ccc(CCN2CCN(c3nc(C4CC4)ns3)CC2)cc1` [Example 24, 1-(3-Cyclopropyl-[1,2,4]thiadiazol-5-yl)-4-[2-(4-methoxy-phenyl)-ethyl]-piperazine], 44.5 nM; to `CCCCc1nsc(N2CCN(CCc3cccc(OC)c3)CC2)n1` [Example 25, 1-(3-Butyl-[1,2,4]thiadiazol-5-yl)-4-[2-(3-methoxy-phenyl)-ethyl]-piperazine], 2.2 nM. In turn, `Fc1ccc(CCN2CCN(c3nc(N4CCCCC4)ns3)CC2)cc1F` [Example 18, 1-[2-(3,4-Difluoro-phenyl)-ethyl]-4-(3-piperidin-1-yl-[1,2,4]thiadiazol-5-yl)-piperazine] registered an EC50 of 46.4 nM. Against the preceding compound, the EC50 is about 21-fold higher.

(Values after patent US9808456B2, “Piperazine thiazole derivatives useful in the treatment of tauopathies such as Alzheimer's disease” (REMYND NV, priority 2011, dated 2017).)
